Results taken from the NIST ThermoML archive (doi:10.1021/je800197t).

Experiment: xn = mol fraction of the nth substance listed
Conditions: 101 kPa, Liquid

CN1CCOCC1 [N-methylmorpholine] + O
Conditions | mass density [kg/m3] | viscosity [mPa·s]
293.15 K, x1 = 0.0452 | 1002.38 | 1.898
293.15 K, x1 = 0.0942 | 1005.32 | 2.577
293.15 K, x1 = 0.1267 | 1003.31 | 3.048
293.15 K, x1 = 0.1763 | 1000.27 | 3.562
293.15 K, x1 = 0.2022 | 996.93 | 3.777
293.15 K, x1 = 0.2538 | 991.88 | 4.115
293.15 K, x1 = 0.2843 | 988.53 | 4.238
293.15 K, x1 = 0.3275 | 983.61 | 4.395
293.15 K, x1 = 0.3754 | 977.87 | 4.439
293.15 K, x1 = 0.4033 | 974.29 | 4.429
293.15 K, x1 = 0.4286 | 971.29 | 4.406
293.15 K, x1 = 0.4689 | 966.09 | 4.331
293.15 K, x1 = 0.4983 | 962.76 | 4.241
293.15 K, x1 = 0.5433 | 957.25 | 4.065
293.15 K, x1 = 0.5983 | 950.09 | 3.798
293.15 K, x1 = 0.6438 | 945.88 | 3.544
293.15 K, x1 = 0.6942 | 941.06 | 3.187
293.15 K, x1 = 0.7587 | 934.53 | 2.792
293.15 K, x1 = 0.8163 | 929.89 | 2.323
293.15 K, x1 = 0.8869 | 924.9 | 1.791
293.15 K, x1 = 0.9244 | 922.59 | 1.503
293.15 K, x1 = 0.9812 | 919.88 | 1.166
303.15 K, x1 = 0.0452 | 990.98 | 1.594
303.15 K, x1 = 0.0942 | 993.65 | 2.036
303.15 K, x1 = 0.1267 | 991.58 | 2.451
303.15 K, x1 = 0.1763 | 988.46 | 2.922
303.15 K, x1 = 0.2022 | 985.14 | 3.065
303.15 K, x1 = 0.2538 | 980.12 | 3.386
303.15 K, x1 = 0.2843 | 976.81 | 3.497
303.15 K, x1 = 0.3275 | 971.96 | 3.619
303.15 K, x1 = 0.3754 | 966.31 | 3.669
303.15 K, x1 = 0.4033 | 962.77 | 3.636
303.15 K, x1 = 0.4286 | 959.83 | 3.635
303.15 K, x1 = 0.4689 | 954.72 | 3.562
303.15 K, x1 = 0.4983 | 951.45 | 3.521
303.15 K, x1 = 0.5433 | 946.05 | 3.363
303.15 K, x1 = 0.5983 | 939.74 | 3.128
303.15 K, x1 = 0.6438 | 934.89 | 2.878
303.15 K, x1 = 0.6942 | 931.06 | 2.588
303.15 K, x1 = 0.7587 | 924.36 | 2.262
303.15 K, x1 = 0.8163 | 920.39 | 1.857
303.15 K, x1 = 0.8869 | 915.52 | 1.489
303.15 K, x1 = 0.9244 | 913.29 | 1.359
303.15 K, x1 = 0.9812 | 910.58 | 1.091
313.15 K, x1 = 0.0452 | 985.04 | 1.327
313.15 K, x1 = 0.0942 | 982.32 | 1.715
313.15 K, x1 = 0.1267 | 980.45 | 1.968
313.15 K, x1 = 0.1763 | 977.58 | 2.348
313.15 K, x1 = 0.2022 | 974.42 | 2.482
313.15 K, x1 = 0.2538 | 969.64 | 2.703
313.15 K, x1 = 0.2843 | 966.47 | 2.838
313.15 K, x1 = 0.3275 | 961.8 | 2.908
313.15 K, x1 = 0.3754 | 956.33 | 2.901
313.15 K, x1 = 0.4033 | 952.91 | 2.869
313.15 K, x1 = 0.4286 | 950.06 | 2.869
313.15 K, x1 = 0.4689 | 945.1 | 2.798
313.15 K, x1 = 0.4983 | 941.92 | 2.758
313.15 K, x1 = 0.5433 | 936.67 | 2.602
313.15 K, x1 = 0.5983 | 930.57 | 2.388
313.15 K, x1 = 0.6438 | 925.8 | 2.244
313.15 K, x1 = 0.6942 | 922.05 | 2.031
313.15 K, x1 = 0.7587 | 916.24 | 1.764
313.15 K, x1 = 0.8163 | 912.31 | 1.495
313.15 K, x1 = 0.8869 | 907.94 | 1.222
313.15 K, x1 = 0.9244 | 905.91 | 1.077
313.15 K, x1 = 0.9812 | 903.31 | 0.952
323.15 K, x1 = 0.0452 | 978.13 | 1.119
323.15 K, x1 = 0.0942 | 972.37 | 1.334
323.15 K, x1 = 0.1267 | 968.24 | 1.539
323.15 K, x1 = 0.1763 | 965.46 | 1.761
323.15 K, x1 = 0.2022 | 962.36 | 1.858
323.15 K, x1 = 0.2538 | 957.73 | 2.023
323.15 K, x1 = 0.2843 | 954.64 | 2.113
323.15 K, x1 = 0.3275 | 950.07 | 2.183
323.15 K, x1 = 0.3754 | 944.75 | 2.176
323.15 K, x1 = 0.4033 | 941.43 | 2.143
323.15 K, x1 = 0.4286 | 938.65 | 2.144
323.15 K, x1 = 0.4689 | 933.8 | 2.073
323.15 K, x1 = 0.4983 | 930.71 | 2.033
323.15 K, x1 = 0.5433 | 925.57 | 1.948
323.15 K, x1 = 0.5983 | 919.96 | 1.783
323.15 K, x1 = 0.6438 | 916.85 | 1.677
323.15 K, x1 = 0.6942 | 913.49 | 1.536
323.15 K, x1 = 0.7587 | 906.16 | 1.362
323.15 K, x1 = 0.8163 | 902.37 | 1.158
323.15 K, x1 = 0.8869 | 898.07 | 0.954
323.15 K, x1 = 0.9244 | 896.15 | 0.939
323.15 K, x1 = 0.9812 | 894.06 | 0.841
333.15 K, x1 = 0.0452 | 968.24 | 0.708
333.15 K, x1 = 0.0942 | 961.01 | 0.998
333.15 K, x1 = 0.1267 | 955.3 | 1.111
333.15 K, x1 = 0.1763 | 951.37 | 1.251
333.15 K, x1 = 0.2022 | – | 1.297
333.15 K, x1 = 0.2538 | 942.51 | 1.396
333.15 K, x1 = 0.2843 | 939.75 | 1.425
333.15 K, x1 = 0.3275 | 935.6 | 1.477
333.15 K, x1 = 0.3754 | 930.7 | 1.468
333.15 K, x1 = 0.4033 | 927.59 | 1.434
333.15 K, x1 = 0.4286 | 925 | 1.433
333.15 K, x1 = 0.4689 | 920.44 | 1.361
333.15 K, x1 = 0.4983 | 917.56 | 1.319
333.15 K, x1 = 0.5433 | 912.67 | 1.232
333.15 K, x1 = 0.5983 | 907.35 | 1.126
333.15 K, x1 = 0.6438 | 904.17 | 1.033
333.15 K, x1 = 0.6942 | 900.9 | 0.935
333.15 K, x1 = 0.7587 | 894.82 | 0.837
333.15 K, x1 = 0.8163 | 891.64 | 0.809
333.15 K, x1 = 0.8869 | 888.89 | 0.719
333.15 K, x1 = 0.9244 | 886.87 | 0.703
333.15 K, x1 = 0.9812 | 884.98 | 0.709
343.15 K, x1 = 0.0452 | 962.12 | 0.499
343.15 K, x1 = 0.0942 | 954.33 | 0.564
343.15 K, x1 = 0.1267 | 948.38 | 0.653
343.15 K, x1 = 0.1763 | 944.12 | 0.691
343.15 K, x1 = 0.2022 | 939.98 | 0.704
343.15 K, x1 = 0.2538 | 934.96 | 0.729
343.15 K, x1 = 0.2843 | 932.11 | 0.757
343.15 K, x1 = 0.3275 | 927.87 | 0.771
343.15 K, x1 = 0.3754 | 922.89 | 0.793
343.15 K, x1 = 0.4033 | 919.76 | 0.757
343.15 K, x1 = 0.4286 | 917.15 | 0.755
343.15 K, x1 = 0.4689 | 912.58 | 0.773
343.15 K, x1 = 0.4983 | 909.69 | 0.718
343.15 K, x1 = 0.5433 | 904.8 | 0.701
343.15 K, x1 = 0.5983 | 899.49 | 0.661
343.15 K, x1 = 0.6438 | 896.3 | 0.629
343.15 K, x1 = 0.6942 | 893.02 | 0.598
343.15 K, x1 = 0.7587 | 886.99 | 0.569
343.15 K, x1 = 0.8163 | 883.81 | 0.566
343.15 K, x1 = 0.8869 | 881.05 | 0.556
343.15 K, x1 = 0.9244 | 879.04 | 0.551
343.15 K, x1 = 0.9812 | 877.14 | 0.535
